Source: PMC11053681, “Gold(I) and Silver(I) Complexes Containing Hybrid Sulfonamide/Thiourea Ligands as Potential Leishmanicidal Agents” (Pharmaceutics, 2024)
Where two headings read alike, the source gives them in different places.

What was measured:
[1] = system: Leishmania braziliensis; test: Leishmanicidal activity against promastigotes (resazurin); assay type: cell-based; conditions: for IC50: promastigote form, 24 h treatment, resazurin, read-out: IC50 L. braziliensis
Method: (§1) The Leishmania infantum and Leishmania braziliensis strains were maintained in Schneider medium supplemented with 20% of SFB (Schneider 20%), cultivated in […] bottles and stored at 28 °C in a BOD oven. For the assays, parasites at the 5th day stationary growth phase were used.
(§2) The promastigotes metacyclic form of Leishmania infantum and Leishmania braziliensis were first filtered with an insulin syringe to break up rosettes and, then, were isolated from the culture in the stationary phase by centrifugation of 400× g for 4 min at a temperature of 4 °C [53]. The supernatant was subjected to a new centrifugation, heavier, of 2000× g for 30 min, also at 4 °C. The supernatant was discarded and the cell pallet formed from this centrifugation was resuspended in 10 mL of 10% Schneider medium. The process ensured the removal of cellular debris and dead parasites, as well as possible crystals from the culture medium, so that the quality of the experiment was guaranteed. Then, the promastigotes were diluted to 1:10 in paraformaldehyde (PFA) for counting in a Neubauer Chamber, with the concentrations adjusted for each experiment.
(§3) An amount of 1 × 10^7 parasites per well was used. The parasites were plated in 96-well plates. Then, the compounds were added in triplicate, starting at a concentration of 500 µM, with serial dilutions being performed up to a concentration of 3.9 µM [53]. The treatment was carried out for 24 h and, after adding 5 µL of resazurin, the fluorescence was read using a Enspire model spectrofluorometer (Perkin-Elmer, Waltham, MA, USA).

[2] = system: Leishmania infantum; test: as above; assay type: cell-based; conditions: for IC50: promastigote form, 24 h treatment, resazurin, read-out: IC50 L. infantum
Method: as §1, §2, §3

[3] = system: Vero cells; test: Cytotoxicity assay on Vero cells (resazurin); assay type: cell-based, African green monkey; conditions: 24 h treatment
Method: For the experiment, Vero cells (ATCC CRL-1587) were used in Roswell Parl Memorial Institute (RPMI) medium with 10% fetal bovine serum (FBS) (RPMI 10%) and 20 μg/mL of Gentamicin. They were cultivated in culture bottles of […] and kept in an oven at 37 °C with 5% carbon dioxide (CO2). When picked or used on the day of the experiment, the cells were detached from the wall of the bottles with saline and 1X trypsin/EDTA. To find out how many cells there were in the bottle, it was diluted in Turkey liquid and then we proceeded with the counting in the Neubauer Chamber to calculate the desired concentrations. The Vero cells were plated at […] cells per well, in 96-well plates, and kept in an incubator with 5% CO2 at 37 °C for 24 h. Then, the compounds were added in triplicate, starting at a concentration of 500 µM, with serial dilution being performed up to a concentration of 3.9 µM [54]. The treatment was carried out for 24 h, and, after adding 5 µL of resazurin, the fluorescence was read using a spectrofluorometer (EnSpire Perkin-Elmer, Waltham, MA, USA).

[4] = Solubility in organic solvents; assay type: physicochemical
[5] = system: Vero cells; set-up: method as in PMID 31152929; conditions: value for the reference drug in Table 5; cited from earlier work

| Solubility in solvents, in words [4] | Compound | IC50 [1] | SI L. braziliensis ([1]; selectivity index = CC50 (Vero) / IC50 (L. braziliensis promastigotes)) | IC50 [2] | SI L. infantum ([2]; selectivity index = CC50 (Vero) / IC50 (L. infantum promastigotes)) | CC50 [3] | CC50 [5] |
| --- | --- | --- | --- | --- | --- | --- | --- |
| low solubility | Cc1ccc(S(=O)(=O)NNC(Nc2ccc(Cl)cc2)=[S][Au+][S]=C(NNS(=O)(=O)c2ccc(C)cc2)Nc2ccc(Cl)cc2)cc1.[Cl-] [Au4, [Au(HL4^ClPh)2]Cl] | 277.6 ± 0.163 µM | 0.12 | 38.18 ± 0.158 µM | 0.84 | 32 µM | – |
| – | Glucantime [reference compound] | 176 to 192 µM | – | 113 to 130 µM | – | – | 1630 µM |
